# Laboratory results: patent US9708336B2, “Metallo-beta-lactamase inhibitors” (priority 2014, dated 2017)
# Read-outs that look alike come from different tables or passages of the source.
# Experiments:
# IMP-1 = IMP-1 (Serratia marcescens, UniProt P52699); assay: biochemical; format: biochemical; conditions: read-out: IMP-1 IC50
# NDM-1 = NDM-1 (Klebsiella pneumoniae, UniProt C7C422); assay: biochemical; format: biochemical; conditions: read-out: NDM-1 IC50
# [1] = tested on: Serratia marcescens expressing IMP-1 (CL5741); assay: Antibiotic potentiation activity: synergistic concentration (MITC95) with imipenem, OD600 growth; format: cell-based; conditions: for Serratia marcescens expressing IMP-1 (CL5741) MITC95: concentration giving 95% inhibition of bacterial growth
# Experimental: (§1) Antibiotic Potentiation Activity: Determination of Synergistic Concentration
# (§2) The bacterial strains tested included the clinical strains Escherichia coli expressing NDM-1 (CLB30005, CLB30016), Serratia marcescens expressing IMP-1 (CL5741), and Klebsiella pneumoniae expressing VIM-1 (IHMA599644) Inhibitor activity was measured in the presence and absence of imipenem in a 384-well microplate.
# (§3) The clinical strains CLB30016, CL5741 and IHMA599644 were grown on trypticase soy agar containing 5% sheep's blood. The clinical strain CLB30005 was grown on Mueller Hinton broth agar containing 8 ug/ml imipenem. The bacteria on agar plates were incubated at 35° C. with humidity overnight. The following day, individual colonies from each clinical strain were picked and resuspended in 5 ml saline to attain an OD600 of 0.14, 0.11, 0.15 and 0.13, for CLB30005, CLB30016, CL5741 and IHMA599644, respectively. These were further diluted 1:100 into 1.1×CAMHB and used to inoculate the test wells as described below.
# (§4) Imipenem in 10 mM 3-(N-morpholino)propanesulfonic acid (MOPS, pH 7) was stored in single use aliquots at −80° C. […] On the day of the assay, 4 μl of antibiotic was added to 45 ul of bacteria followed by 1 μl of test compound and mixed by pipetting and with an orbital shaker. The concentration of antibiotic used in the assay was 4 μg/ml, or optionally 1 μg/ml. Microplates were covered and incubated at 35° C. for 22 hours to 24 hours. At the end of the incubation, absorbance was determined using a spectrophotometer.
# [2] = tested on: Klebsiella pneumoniae expressing VIM-1 (IHMA599644); assay: as above; format: cell-based; conditions: for Klebsiella pneumoniae expressing VIM-1 (IHMA 599644) MITC95: concentration giving 95% inhibition of bacterial growth
# Experimental: as §1, §2, §3, §4
# [3] = tested on: Escherichia coli expressing NDM-1 (CLB30016); assay: as above; format: cell-based; conditions: for Escherichia coli expressing NDM-1 (CLB 30016) MITC95: concentration giving 95% inhibition of bacterial growth
# Experimental: as §1, §2, §3, §4
# [4] = fluorescence assay with CCF2-FA substrate
# [5] = CL5741 (IMP-1), 95% inhibition of bacterial growth
# [6] = IHMA599644 (VIM-1), 95% inhibition of bacterial growth
# [7] = CLB30016 (NDM-1), 95% inhibition of bacterial growth
# [8] = IMP-1 enzyme, CCF2-FA substrate
# [9] = NDM-1 enzyme, CCF2-FA substrate
# [10] = Serratia marcescens CL5741 (IMP-1), 95% growth inhibition
# [11] = Klebsiella pneumoniae IHMA599644 (VIM-1), 95% growth inhibition
# [12] = (CLB30016, NDM-1), 95% growth inhibition
# [13] = IMP-1 enzyme, CCF2-FA fluorescence assay
# [14] = NDM-1 enzyme, CCF2-FA fluorescence assay
# [15] = Serratia marcescens expressing IMP-1 (CL5741), 95% growth inhibition
# [16] = Klebsiella pneumoniae expressing VIM-1 (IHMA599644), 95% growth inhibition
# [17] = Escherichia coli expressing NDM-1 (CLB30016), 95% growth inhibition
# Sequence of NDM-1 (C7C422 whole entry, looked up, species assumed): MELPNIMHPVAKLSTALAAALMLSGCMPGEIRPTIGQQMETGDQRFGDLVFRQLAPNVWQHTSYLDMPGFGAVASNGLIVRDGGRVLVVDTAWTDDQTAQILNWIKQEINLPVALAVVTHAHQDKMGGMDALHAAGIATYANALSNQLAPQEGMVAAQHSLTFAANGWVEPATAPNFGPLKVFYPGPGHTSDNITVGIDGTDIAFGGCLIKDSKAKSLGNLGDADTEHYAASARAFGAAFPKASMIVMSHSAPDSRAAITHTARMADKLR
# Sequence of IMP-1 (P52699 whole entry, looked up): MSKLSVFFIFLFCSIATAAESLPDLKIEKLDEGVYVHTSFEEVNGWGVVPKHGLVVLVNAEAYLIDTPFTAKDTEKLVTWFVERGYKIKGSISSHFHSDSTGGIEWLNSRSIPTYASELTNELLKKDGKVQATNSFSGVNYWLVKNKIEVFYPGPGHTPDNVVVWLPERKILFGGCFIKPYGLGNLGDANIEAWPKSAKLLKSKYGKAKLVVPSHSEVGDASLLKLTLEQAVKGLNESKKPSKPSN
smiles,measurement,setting,value
"NS(=O)(=O)c1c(C(F)(F)F)ccc(-c2ccc(C3CN(CC4CCNCC4)C3)cc2)c1-c1nnn[nH]1 [Example 804, 4′-[1-(piperidin-4-ylmethyl)azetidin-3-yl]-2-(1H-tetrazol-5-yl)-4-(trifluoromethyl)biphenyl-3-sulfonamide]",IC50,IMP-1; [4],5.78 nM
same,IC50,NDM-1; [4],3.85 nM
same,Serratia marcescens MITC95,[1]; [5],6.25 µM
same,Klebsiella pneumoniae MITC95,[2]; [6],50 µM
same,Escherichia coli MITC95,[3]; [7],3.125 µM
"NS(=O)(=O)c1c(C(F)(F)F)ccc(N2CCN3C(=O)OCC3C2)c1-c1nnn[nH]1 (centres unmarked) [Example 667, 3-(3-oxotetrahydro[1,3]oxazolo[3,4-a]pyrazin-7(1H)-yl)-2-(1H-tetrazol-5-yl)-6-(trifluoromethyl)benzenesulfonamide]",IC50,IMP-1; [8],75 nM
same,IC50,NDM-1; [9],19.7 nM
same,Serratia marcescens MITC95,[1]; [10],2.344 µM
same,Klebsiella pneumoniae MITC95,[2]; [11],9.375 µM
same,Escherichia coli MITC95,[3]; [12],3.125 µM
"NS(=O)(=O)c1cccc(C2=CCS(=O)(=O)CC2)c1-c1nnn[nH]1 [Example 141, 3-(1,1-dioxido-3,6-dihydro-2H-thiopyran-4-yl)-2-(1H-tetrazol-5-yl)benzenesulfonamide]",IC50,IMP-1; [4],2340 nM
same,IC50,NDM-1; [4],61.5 nM
same,Serratia marcescens expressing IMP-1 (CL5741) MITC95,[1],37.5 µM
same,Klebsiella pneumoniae expressing VIM-1 (IHMA 599644) MITC95,[2],200 µM
same,Escherichia coli expressing NDM-1 (CLB 30016) MITC95,[3],0.7813 µM
"NS(=O)(=O)c1c(C(F)(F)F)ccc(-c2ccc3nccn3c2)c1-c1nnn[nH]1 [Example 484, 3-(Imidazo[1,2-a]pyridin-6-yl)-2-(1H-tetrazol-5-yl)-6-(trifluoromethyl)benzenesulfonamide]",IC50,IMP-1; [13],6.58 nM
same,IC50,NDM-1; [14],1.22 nM
same,Serratia marcescens MITC95,[1]; [15],0.3828 µM
same,Klebsiella pneumoniae MITC95,[2]; [16],1.708 µM
same,Escherichia coli MITC95,[3]; [17],0.25 µM
"NS(=O)(=O)c1cccc(-c2ccc3nonc3c2)c1-c1nnn[nH]1 [Example 130, 3-(benzo[c][1,2,5]oxadiazol-5-yl)-2-(1H-tetrazol-5-yl)benzenesulfonamide]",IC50,IMP-1; [4],267 nM
same,IC50,NDM-1; [4],10.6 nM
same,Serratia marcescens expressing IMP-1 (CL5741) MITC95,[1],9.375 µM
same,Klebsiella pneumoniae expressing VIM-1 (IHMA 599644) MITC95,[2],37.5 µM
same,Escherichia coli expressing NDM-1 (CLB 30016) MITC95,[3],1.172 µM
"CN1[C@@H]2CC[C@H]1CC(NCc1ccc(-c3cccc(S(N)(=O)=O)c3-c3nnn[nH]3)cc1)C2 (stereo partly drawn) [Example 366, 4′-({[(3-endo)-8-methyl-8-azabicyclo[3.2.1]oct-3-yl]amino}methyl)-2-(1H-tetrazol-5-yl)biphenyl-3-sulfonamide]",IC50,IMP-1; [13],257 nM
same,IC50,NDM-1; [14],18.2 nM
same,Serratia marcescens MITC95,[1]; [15],3.125 µM
same,Klebsiella pneumoniae MITC95,[2]; [16],150 µM
same,Escherichia coli MITC95,[3]; [17],1.172 µM
"NC1CCCC(N2CCC(c3ccc(-c4ccc(C(F)(F)F)c(S(N)(=O)=O)c4-c4nnn[nH]4)cc3)CC2)C1 (centres unmarked) [Example 798, 4′-[1-(3-aminocyclohexyl)piperidin-4-yl]-2-(1H-tetrazol-5-yl)-4-(trifluoromethyl)biphenyl-3-sulfonamide]",IC50,IMP-1; [4],2.35 nM
same,IC50,NDM-1; [4],6.05 nM
same,Serratia marcescens MITC95,[1]; [5],3.125 µM
same,Klebsiella pneumoniae MITC95,[2]; [6],25 µM
same,Escherichia coli MITC95,[3]; [7],1.563 µM
"NC1CCCC1N1CCC(c2ccc(-c3ccc(C(F)(F)F)c(S(N)(=O)=O)c3-c3nnn[nH]3)cc2)CC1 (centres unmarked) [Example 791, 4′-[1-(2-aminocyclopentyl)piperidin-4-yl]-2-(1H-tetrazol-5-yl)-4-(trifluoromethyl)biphenyl-3-sulfonamide]",IC50,IMP-1; [4],1.2 nM
same,IC50,NDM-1; [4],6.26 nM
same,Serratia marcescens MITC95,[1]; [5],1.563 µM
same,Klebsiella pneumoniae MITC95,[2]; [6],50 µM
same,Escherichia coli MITC95,[3]; [7],0.7813 µM
"Nc1nc2cncc(-c3ccc(C(F)(F)F)c(S(N)(=O)=O)c3-c3nnn[nH]3)c2[nH]1 [Example 571, 3-(2-amino-1H-imidazo[4,5-c]pyridin-7-yl)-2-(1H-tetrazol-5-yl)-6-(trifluoromethyl)benzenesulfonamide]",IC50,IMP-1; [8],14.8 nM
same,IC50,NDM-1; [9],1.71 nM
same,Serratia marcescens MITC95,[1]; [10],3.125 µM
same,Klebsiella pneumoniae MITC95,[2]; [11],6.25 µM
same,Escherichia coli MITC95,[3]; [12],0.7813 µM
"NS(=O)(=O)c1cccc(-c2nc(-c3ccncc3)cs2)c1-c1nnn[nH]1 [Example 407, 3-[4-(4-pyridyl)thiazol-2-yl]-2-(1H-tetrazol-5-yl)benzenesulfonamide]",IC50,IMP-1; [13],115 nM
same,IC50,NDM-1; [14],25.8 nM
same,Serratia marcescens MITC95,[1]; [15],3.125 µM
same,Klebsiella pneumoniae MITC95,[2]; [16],>200 µM
same,Escherichia coli MITC95,[3]; [17],3.125 µM
"NS(=O)(=O)c1c(C(F)(F)F)ccc(C2CCC2)c1-c1nnn[nH]1 [Example 492, 3-cyclobutyl-2-(1H-tetrazol-5-yl)-6-(trifluoromethyl)benzenesulfonamide]",IC50,IMP-1; [8],16 nM
same,IC50,NDM-1; [9],17.3 nM
same,Serratia marcescens MITC95,[1]; [10],0.3906 µM
same,Klebsiella pneumoniae MITC95,[2]; [11],12.5 µM
same,Escherichia coli MITC95,[3]; [12],3.125 µM
"NC1CCC(N2CC(c3ccc(-c4ccc(C(F)(F)F)c(S(N)(=O)=O)c4-c4nnn[nH]4)cc3)C2)CC1 (centres unmarked) [Example 809, 4′-[1-(4-aminocyclohexyl)azetidin-3-yl]-2-(1H-tetrazol-5-yl)-4-(trifluoromethyl)biphenyl-3-sulfonamide]",IC50,IMP-1; [4],11.3 nM
same,IC50,NDM-1; [4],4.02 nM
same,Serratia marcescens MITC95,[1]; [5],6.25 µM
same,Klebsiella pneumoniae MITC95,[2]; [6],50 µM
same,Escherichia coli MITC95,[3]; [7],3.125 µM
"CN1CCN(c2cc(-c3cccc(S(N)(=O)=O)c3-c3nnn[nH]3)ccn2)CC1 [Example 116, 3-(2-(4-methylpiperazin-1-yl)pyridin-4-yl)-2-(1H-tetrazol-5-yl)benzenesulfonamide]",IC50,IMP-1; [4],226 nM
same,IC50,NDM-1; [4],5.43 nM
same,Serratia marcescens expressing IMP-1 (CL5741) MITC95,[1],9.375 µM
same,Klebsiella pneumoniae expressing VIM-1 (IHMA 599644) MITC95,[2],200 µM
same,Escherichia coli expressing NDM-1 (CLB 30016) MITC95,[3],1.563 µM
"NC1CCN(C2CCN(c3ccc(C(F)(F)F)c(S(N)(=O)=O)c3-c3nnn[nH]3)CC2)C1 (centres unmarked) [Example 768, 3-[4-(3-aminopyrrolidin-1-yl)piperidin-1-yl]-2-(1H-tetrazol-5-yl)-6-(trifluoromethyl) benzenesulfonamide]",IC50,IMP-1; [4],36.7 nM
same,IC50,NDM-1; [4],24.6 nM
same,Serratia marcescens MITC95,[1]; [5],6.25 µM
same,Klebsiella pneumoniae MITC95,[2]; [6],3.125 µM
same,Escherichia coli MITC95,[3]; [7],12.5 µM
"NS(=O)(=O)c1c(CC2CCNCC2)ccc(-c2ccc(C3CCNC3)cc2)c1-c1nn[nH]n1 (centres unmarked) [Example 588, 4-(piperidin-4-ylmethyl)-4′-(pyrrolidin-3-yl)-2-(2H-tetrazol-5-yl)-[1,1′-biphenyl]-3-sulfonamide]",IC50,IMP-1; [8],28.8 nM
same,IC50,NDM-1; [9],6.27 nM
same,Serratia marcescens MITC95,[1]; [10],3.125 µM
same,Klebsiella pneumoniae MITC95,[2]; [11],1.563 µM
same,Escherichia coli MITC95,[3]; [12],1.563 µM
"NS(=O)(=O)c1cccc(-c2ccc(NC3CCNC3)nc2)c1-c1nnn[nH]1 (centres unmarked) [Example 628, 3-[6-(pyrrolidin-3-ylamino)-3-pyridyl]-2-(1H-tetrazol-5-yl)benzenesulfonamide]",IC50,IMP-1; [8],650 nM
same,IC50,NDM-1; [9],45 nM
same,Serratia marcescens MITC95,[1]; [10],12.5 µM
same,Klebsiella pneumoniae MITC95,[2]; [11],12.5 µM
same,Escherichia coli MITC95,[3]; [12],0.9766 µM
"CC(C(=O)O)N(C)Cc1ccc(-c2cccc(S(N)(=O)=O)c2-c2nnn[nH]2)cc1 (centres unmarked) [Example 367, N-methyl-N-{[3′-sulfamoyl-2′-(1H-tetrazol-5-yl)biphenyl-4-yl]methyl}alanine]",IC50,IMP-1; [13],60.3 nM
same,IC50,NDM-1; [14],7.53 nM
same,Serratia marcescens MITC95,[1]; [15],3.125 µM
same,Klebsiella pneumoniae MITC95,[2]; [16],200 µM
same,Escherichia coli MITC95,[3]; [17],3.125 µM
"CN1C2CCC1CC(NCc1ccc(-c3cccc(S(N)(=O)=O)c3-c3nnn[nH]3)cc1)C2 (centres unmarked) [Example 370, 4′-{[(8-methyl-8-azabicyclo[3.2.1]oct-3-yl)amino]methyl}-2-(1H-tetrazol-5-yl)biphenyl-3-sulfonamide]",IC50,IMP-1; [13],45.8 nM
same,IC50,NDM-1; [14],7.35 nM
same,Serratia marcescens MITC95,[1]; [15],1.563 µM
same,Klebsiella pneumoniae MITC95,[2]; [16],200 µM
same,Escherichia coli MITC95,[3]; [17],1.563 µM
"NCCNc1ccc(-c2cccc(S(N)(=O)=O)c2-c2nnn[nH]2)cn1 [Example 634, 3-[6-(2-aminoethylamino)-3-pyridyl]-2-(1H-tetrazol-5-yl)benzenesulfonamide]",IC50,IMP-1; [8],1280 nM
same,IC50,NDM-1; [9],14.1 nM
same,Serratia marcescens MITC95,[1]; [10],18.75 µM
same,Klebsiella pneumoniae MITC95,[2]; [11],6.25 µM
same,Escherichia coli MITC95,[3]; [12],0.5859 µM
